From patent publication US3974188A, “Process for producing cholestane type steroids” (The Lion Dentifrice Co., Ltd., priority 1974, dated 1976)

What was measured:
vascular diffusion = assay: Test for inhibition of the acceleration of vascular diffusion (inhibition of cutaneous chromoleaching of rat); type: in vivo; conditions: for Inhibition rate (%) / Mean blueing area (mm^2 ± S.E.): rat; for Mean blueing area (mm^2 ± S.E.): none: 200 ± 8.0
Source text: 3. Test for inhibition of the acceleration of vascular diffusion
(Test for inhibition of cutaneous chromoleaching of rat)**
**Juduh, J. D. and Willoughby, D.A.; J. Path. Buct., 83, 567 (1962)

sarcomatous growth = assay: Test for inhibition of sarcomatous growth (Rat cotton pellet method); type: in vivo; conditions: dose 100 mg/kg, 7 rats
Source text: 1. Test for inhibition of sarcomatous growth
(Rat cotton pellet method)*
*Meier, R., Schuler, W. and Desaulees, P. : Experienta, 6, (1950)

Acute toxicity, LD50 = type: in vivo; conditions: mouse, in vivo, mouse male, 5 weeks
Source text: (§1) |LD50 (mouse male, 5 weeks)

[1] = Antiinflammatory effect (overall statement); conditions: in vivo
mouse = assay: Acute toxicity, LD50; type: in vivo; conditions: mouse male, 5 weeks; intraperitoneal
Source text: as §1

Row | Compound | Inhibition rate (%) (vascular diffusion; 50 mg/kg P.C.) | Mean blueing area (mm^2 ± S.E.) (vascular diffusion; 50 mg/kg P.C.) | Inhibition rate (%) (vascular diffusion; 100 mg/kg P.C.) | Mean blueing area (mm^2 ± S.E.) (vascular diffusion; 100 mg/kg P.C.) | Inhibition rate (%) (sarcomatous growth) | LD50 (Acute toxicity, LD50; ip, intraperitoneal) | LD50 (Acute toxicity, LD50; po) | antiinflammatory effect (in words) [1] | acceleration of vascular diffusion (in words) (vascular diffusion; 100 mg/kg) | LD50 (mouse)
1 | CC(C)CCC[C@@H](C)[C@H]1CC[C@H]2[C@@H]3CC[C@H]4C[C@@H](O)CC[C@]4(C)[C@H]3CC[C@]12C [C, cholestanol] | 4.5% | 191 ± 5 mm^2 | 6% | 188 ± 3 mm^2 | 4.5% |  |  |  |  | 
2 | CC(C)CCC[C@@H](C)[C@H]1CC[C@H]2[C@@H]3CC[C@H]4C[C@H](O)CC[C@]4(C)[C@H]3CC[C@]12C [EC, epicholestanol] | 4.5% | 191 ± 9 mm^2 | 10% | 180 ± 4 mm^2 | 6.9% |  |  |  |  | 
3 | CC(C)CCC[C@@H](C)[C@H]1CC[C@H]2[C@@H]3CC[C@H]4C[C@@H](OP(=O)(O)O)CC[C@]4(C)[C@H]3CC[C@]12C [K2 --PEC, dipotassium cholestanyl phosphate] |  |  |  |  | 10.0% |  |  |  |  | 
4 | CC(C)CCC[C@@H](C)[C@H]1CC[C@H]2[C@@H]3CC[C@H]4C[C@H](OP(=O)(O)O)CC[C@]4(C)[C@H]3CC[C@]12C [dipotassium epicholestanyl phosphate] | 18% | 164 ± 4 mm^2 | 21% | 158 ± 6 mm^2 | 21.5% | 1580 mg/kg | 9300 mg/kg | remarkably effective as an antiinflammatory agent |  | 
5 | CC(C)CCC[C@@H](C)[C@H]1CC[C@H]2[C@@H]3CC[C@H]4C[C@H](OP(=O)(O)O)CC[C@]4(C)[C@H]3CC[C@]12C [epicholestanyl phosphate] |  |  |  |  |  |  |  |  | inhibited | 1850 mg/kg
